Source: patent US20100129434A1, “COMPOSITIONS AND METHODS FOR THE TREATMENT OF MUCORMYCOSIS AND OTHER FUNGAL DISEASES” (priority 2006, published 2010)
Where two headings read alike, the source gives them in different places.

Columns and labels:
[1] = cited from earlier work
R. oryzae = experiment: Survival of diabetic ketoacidotic (DKA) mice infected with R. oryzae; type: in vivo, BALB/c male mice; details: DKA mice; for survival compared to controls: 2.2×10^4 spores R. oryzae 99-892, 1, 3, or 10 mg/kg bid for seven days; for 28 day survival: R. oryzae 99-892
Experimental: Briefly, for in vivo infection, BALB/c male mice (>20 g) were rendered diabetic with a single i.p. injection of 210 mg/kg streptozotocin in 0.2 ml citrate buffer 10 days prior to fungal challenge. […] Mice were infected through the tail vein with the appropriate inocula of R. oryzae. To confirm the inocula, dilutions were streaked on PDA plates and colonies were counted following a 24 h incubation period at room temperature. The primary efficacy endpoint was time to death. As a secondary endpoint, brain fungal burden (the primary target organ) was determined by homogenization by rolling a pipette on organs placed in Whirl-Pak bags (Nasco, Fort Atkinson, Wis.) containing 2 ml saline. The homogenate was serially diluted in 0.85% saline and then quantitatively cultured on PDA. Values were expressed as log 10 cfu g^−1 tissue. All procedures involving mice were approved by the institutional animal use and care committee, following the National Institutes of Health guidelines for animal housing and care.
Deferiprone (Apotex Research Inc.) was dissolved in iron-free water and administered intraperitoneally at 50, 100, or 200 mg/kg qd or qod (every other day). Treatment was begun 24 h post infection and continued for a total of 4 doses. Control groups were treated with the diluent, 5% dextrose water.
Deferiprone is known to form molecular complexes with ferric iron (^3+Fe) in a 1:3 ratio of iron to deferiprone. Based on the known molecular weights of ferric chloride (FeCl3, molecular weight 162.22 g/mol) and deferiprone (molecular weight 139 g/mol), a 60 mg/kg dose of FeCl3 was calculated to result in a significant excess of ^3+Fe vs. a 100 mg/kg dose of deferiprone given to an 18 g mouse: ^3+Fe moles=(0.060 g/kg*0.018 kg [mouse weight]/162.22 g/mol)=6.5×10^−6 mol vs. deferiprone moles=(0.1 g/kg*0.018 kg [mouse weight]/139 g/mol)=1.3×10^−5 mol Ratio=1:2 moles of ^3+Fe to deferiprone, which is more than that required to achieve a saturating 1:3 ratio.
Statistical analysis was performed using the nonparametric log rank test was used to determine differences in survival times of the mice. Differences in tissue fungal burdens in the infected organs were compared by the nonparametric Steel test for multiple comparisons. P values of <0.05 were considered significant.
Deferasirox (Novartis Pharmaceuticals, Basel, Switzerland) was suspended in 0.5% hydroxypropylcellulose (Klucel) and administered by oral gavage at 1, 3, or 10 mg/kg […] (qd) or every other day (qod). Treatment was begun 24 h post infection and continued for a total of 5 or 7 doses. Control groups were treated with the diluent, 5% dextrose water and 0.5% Klucel. In some experiments, a saturating dose of free iron was administered with deferasirox. Deferasirox is known to form molecular complexes with ferric iron (^3+Fe) in a 1:2 ratio of iron to deferasirox. Based on the known molecular weights of ferric chloride (FeCl3, molecular weight 162.22 g/mol) and deferasirox (molecular weight 373.4 g/mol), a 2.8 mg/kg dose of FeCl3 was calculated to result in a significant excess of ^3+Fe vs. a 10 mg/kg dose of deferasirox given to an 18 g mouse: ^3+Fe moles=(0.0028 g/kg*0.018 kg [mouse weight]/162.22 g/mol)=3×10^−7 mol vs. deferasirox moles=(0.01 g/kg*0.018 kg [mouse weight]/373.4 g/mol)=5×10^−7 mol Ratio=1:1.7 moles of ^3+Fe to deferasirox, which is more than that required to achieve a saturating 1:2 ratio.
The nonparametric log rank test was used to determine differences in survival times of the mice. Differences in tissue fungal burdens, splenic lymphocyte frequencies, and whole organ cytokines in the infected organs were compared by the Mann Whitney U test. P values of <0.05 were considered significant.

[2] = Deferasirox toxicity studies in neutropenic mice; type: in vivo; details: uninfected neutropenic mice
Experimental: Toxicity of deferasirox in neutropenic mice was evaluated. Mice were rendered neutropenic as above and treated with deferasirox at 10 mg/kg twice every day or every other day for 7 days. Mice from three different groups (i.e. placebo, deferasirox daily treatment, and deferasirox every other day treatment) were sacrificed on day 3 or 8 and blood was collected and sent for Charles River Laboratories for evaluation. Additionally, bone marrow smears were prepared from femurs, and tissues were collected, preserved in zinc-buffered formalin, embedded in paraffin, sectioned at 5 μm, and stained with hematoxylin and eosin. The resulting slides were examined by a board-certified veterinary pathologist at Charles River Laboratories.
Because deferasirox dosing every other day was optimal in the neutropenic model, we sought to identify any potential toxicity caused by daily dosing of deferasirox in neutropenic mice. Mice were made neutropenic with cyclophosphamide as above, but were not infected. The mice were treated with deferasirox 10 mg/kg twice daily for seven days, 10 mg/kg twice every other day for 4 doses, or placebo. Terminal bleeds were performed on day 3 or day 8 to measure complete blood count, serum chemistries, and liver function tests. […]

For O=C(O)c1ccc(-n2nc(-c3ccccc3O)nc2-c2ccccc2O)cc1 [Deferasirox, 4-[3,5-Bis(2-hydroxyphenyl)-1H-1,2,4-triazol-1-yl]-benzoic acid], the toxicity ([1]; iron-overloaded marmosets, doses up to 400 mg/kg/d) is given as “virtually no toxicity”, the toxicity ([1]; non-iron overloaded marmosets, 39 weeks, up to 40 mg/kg/d) is given as “no toxicities” and the tolerability ([1]; non-iron overloaded marmosets, subacute treatment (4 weeks), up to 65 mg/kg/d) is given as “well tolerated with no adverse effects”. The toxicity ([1]; non-iron-overloaded marmosets, chronic administration, 80 mg/kg) was “severe toxicity”, the “time to death compared to placebo” value (R. oryzae; 1.3×10^3 spores R. oryzae 99-880, 10 mg/kg bid seven days) was “significantly improved time to death” and the “survival compared to controls” value (R. oryzae) was “significantly improved survival”. The “survival compared to controls” value (R. oryzae; listed as Exjade) was “improves survival”, the survival (R. oryzae; R. oryzae 99-880, Deferasirox 10 mg/kg po twice daily, LAmB 15 mg/kg iv once daily 4 doses, or both, placebo 0%) was 25% and the 28 day survival (R. oryzae; 1 mg/kg bid oral gavage 7 days, placebo 0%, p=0.03) was 29%. For the same compound, the 28 day survival (R. oryzae; 3 mg/kg bid oral gavage 7 days, placebo 0%, p=0.049) was 40%, the 28 day survival (R. oryzae; 10 mg/kg bid oral gavage 7 days, placebo 0%, p=0.01) was 57% and the “protective effect on administration of free iron” value (R. oryzae; deferasirox plus saturating ferric chloride) was “reversed”. For the same compound, the “white cell, neutrophil, platelet counts, hemoglobin, serum chemistries, liver function tests versus placebo” value ([2]; 10 mg/kg twice daily 7 days or twice every other day 4 doses, day 3 or 8) was “No differences” and the “organ toxicity by histopathology” value ([2]; 10 mg/kg twice daily or twice every other day) was “no organ-specific toxicity attributable to deferasirox”.
